Laboratory results: PubChem BioAssay (NCI)
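Results reflect a 48-hour exposure of cells in 96-well plates to compound at five concentrations. TGI marks complete inhibition of growth.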 Where a SMILES comes first, the peptide text is derived from it. The star is where a group is joined. Boc = CC(C)(C)OC(=O)*; OBn = c1ccc(CO*)cc1; Bn = c1ccc(C*)cc1

How the values were obtained:
Assay in all cases: NCI-60 cell line screen, 48 h
A549 NSCLC = tested on: A549 NSCLC
EKVX NSCLC = tested on: EKVX NSCLC
HL-60(TB) leukemia = tested on: HL-60(TB) leukemia
HS 578T breast = tested on: HS 578T breast
IGROV1 ovarian = tested on: IGROV1 ovarian
KM12 colon = tested on: KM12 colon
MCF7 breast = tested on: MCF7 breast
OVCAR-3 ovarian = tested on: OVCAR-3 ovarian
SN12C renal = tested on: SN12C renal
TK-10 renal = tested on: TK-10 renal

Row | Structure (SMILES) | TGI (A549 NSCLC) [µM] | TGI (EKVX NSCLC) [µM] | TGI (HL-60(TB) leukemia) [µM] | TGI (HS 578T breast) [µM] | TGI (IGROV1 ovarian) [µM] | TGI (KM12 colon) [µM] | TGI (MCF7 breast) [µM] | TGI (OVCAR-3 ovarian) [µM] | TGI (SN12C renal) [µM] | TGI (TK-10 renal) [µM]
1 | CN(CCN(C)Cc1ccc(Cl)c(Cl)c1)CCN1CCCC1 | > 100 | > 100 | > 100 | > 45 | > 79.1 | > 100 | > 85.1 | > 100 | > 100 | > 100
2 | c1ccc(C[P+]2(c3ccccc3)CCCCC2)cc1 | > 100 | > 100 | > 100 | – | > 100 | > 100 | – | > 100 | > 100 | > 100
3 | CC(C)CC(NC(=O)C(CCC(=O)OCc1ccccc1)NC(=O)OC(C)(C)C)C(=O)NC(COCc1ccccc1)C(=O)NC(Cc1ccccc1)C(=O)O (centres undefined) (Boc-E(OBn)LS(Bn)F-OH; configuration not given here) | > 100 | > 100 | > 100 | > 100 | > 100 | > 100 | > 100 | – | > 100 | > 100
4 | COc1cc(C(C)(C)C)c(OC(=O)/C=C/C(=O)O/C=C/[N+](=O)[O-])c(C(C)(C)C)c1 | 55 | > 100 | 4.29 | 63.9 | > 100 | 38.5 | 40.4 | > 100 | > 100 | > 100
5 | NC(=O)NC1=NCCC(=O)N1CCc1c[nH]c2ccccc12 | 54.8 | 48.6 | 42.5 | 80.1 | 42.1 | 52.4 | – | 47.8 | 54.7 | 48.6
6 | CC(C)OCC(O)COc1cc(=O)oc2ccccc12 (centres undefined) | > 100 | > 100 | > 100 | > 100 | > 100 | > 100 | > 100 | > 100 | > 100 | > 100
7 | O=c1[nH]/c(=C/c2cccs2)c(=O)[nH]/c1=C/c1ccc(OCc2ccccc2)cn1 | > 55.9 | > 100 | 0.244 | 0.204 | > 100 | 26.3 | 39.6 | 0.0382 | > 100 | 27.4
8 | C/C(=C/CC[C@](C)(OC1OC(CO)C(O)C(O)C1OC1OC(C)C(O)C(O)C1O)[C@H]1CC[C@]2(C)[C@@H]1CC[C@@H]1[C@@]3(C)CC[C@H](O)C(C)(C)[C@@H]3C[C@H](O)[C@]12C)CO (some centres undefined) | > 100 | > 100 | > 100 | > 100 | > 100 | > 100 | > 100 | > 100 | > 100 | > 100
9 | O=C1CCCn2c3ccccc3c3ccnc1c32 | > 100 | > 85.2 | 23 | – | > 100 | > 100 | > 100 | > 100 | > 100 | –
10 | Oc1cccc(-c2cc(=S)ss2)c1 | 44.5 | 31.5 | 48.5 | 36.9 | 29.8 | 43 | 27.5 | – | 36.5 | 33.1
11 | CC1CCC(O)/C=C/C(=O)OC(C)C(O)/C=C/C(=O)O1 (centres undefined) | > 100 | > 100 | > 79.5 | > 100 | > 100 | > 100 | > 100 | > 100 | > 100 | > 100
12 | COC(CO[Si](C)(C)N[Si](C)(C)OCC(OC)c1ccccc1)c1ccccc1 (centres undefined) | > 100 | > 100 | > 100 | – | > 100 | > 100 | > 100 | > 100 | > 100 | > 100
13 | CCOC(=O)n1c2ccccc2c2c(O)c(OC)c3c(c21)C(=O)NC3=O | > 100 | > 100 | 49.2 | > 100 | > 100 | > 100 | > 100 | > 100 | > 100 | > 100
14 | NC(=O)c1ccc(N)nc1 | > 400 | > 400 | > 400 | > 400 | > 400 | > 400 | > 400 | > 400 | > 400 | > 400
15 | CC12CCC3=C(CSC4=C3CSc3ccccc34)C1=CCCC2=O (centres undefined) | > 100 | > 100 | > 100 | – | – | > 100 | – | > 100 | > 100 | > 100
16 | CCOC(=O)Cn1c(=O)c2cc(C)cc3c(Cl)nc4c(OC)c(OC)cc1c4c32 | > 100 | > 100 | > 100 | 74.7 | > 100 | > 100 | > 100 | > 100 | – | > 100
17 | COc1c(Cl)ccc(Cl)c1-c1nnc(-c2c(Cl)c(Cl)c(Cl)c(Cl)c2-c2nc3ccc(C(=O)c4ccccc4)cc3[nH]2)o1 | > 100 | > 100 | > 100 | > 100 | > 100 | > 100 | > 100 | > 100 | > 100 | > 100
18 | O=c1[nH]nc(Nc2ccccc2)c2nnn(Cc3ccccc3)c12 | > 100 | > 100 | > 100 | 90.4 | > 100 | > 100 | > 100 | – | > 100 | > 100
19 | C=CCCCN1C(=O)C2C3c4ccccc4C(C=O)(c4ccccc43)C2C1=O (centres undefined) | 35.9 | 20.7 | 34.5 | – | 65.1 | 21.6 | 28.5 | 23.4 | 22.2 | 30.2
20 | O=C(O)CC(Cc1ccccc1)C(=O)O (centres undefined) | > 100 | > 100 | – | > 100 | > 100 | > 100 | > 100 | > 100 | > 100 | > 100
21 | CCCCOP(=O)(OCCCC)C(NS(=O)(=O)c1ccccc1)(C(=O)OCC)C(F)(F)F (centres undefined) | > 100 | > 100 | 47.8 | > 100 | 65.6 | 93.2 | 76.1 | 59.5 | 90.4 | 87.6
22 | CC(=O)O/N=C1\C=Cc2c(no[n+]2[O-])C1=O | 31.1 | 31.5 | – | 56.3 | 30.3 | 33.7 | 45.4 | 30 | 32.9 | 29
